Measurements as given in PMC7356589, “Hybrid Gold(I) NHC-Artemether Complexes to Target Falciparum Malaria Parasites” (Molecules, 2020).
Where two headings read alike, the source gives them in different places.

Experiments:
[1] = system: P. falciparum F32-ART (artemisinin-resistant); test: Recrudescence assay after 48 h drug exposure, F32-ART; assay type: cell-based, Plasmodium falciparum; settings: 48 h exposure
Description: (§1) The Plasmodium falciparum F32-ART and F32-TEM parasite lines, resistant and sensitive to artemisinins respectively, were cultured in vitro in type O human erythrocytes (Etablissement Français du sang (EFS), Toulouse, France), diluted to 2% hematocrit, in RPMI-1640 medium (GIBCO, Illkirch, France) and supplemented with 5% Human Serum AB (EFS, Toulouse, France) at 37 °C and 5% CO2 [33]. Every other day and before each experiment, P. falciparum F32-ART and F32-TEM parasites were synchronized at ring stage using 5% D-sorbitol solution [34].
(§2) P. falciparum strains F32-ART and F32-TEM, synchronized at ring stage parasites at 3% parasitemia and 2% hematocrit have undergone a 48 h-treatment with the drugs to be tested. The parasites were then washed with RPMI-1640 medium and re-cultivated in drug-free culture conditions with 10% human serum. The parasitemia was then monitored daily to determine the time required for each parasite culture to recover the initial parasitemia of 3%. If no parasites were seen up to 30 days, the parasites were considered as “not recrudescent” [9, 15]. The drug doses were chosen in order to discriminate the phenotype response between the artemisinin-resistant and the -sensitive strains. A range from 1-fold to >100-fold the antiplasmodial IC50 value previously found has been tested to determine the most appropriate drug dose to use in this recrudescence assay.

[2] = system: P. falciparum F32-TEM (artemisinin-sensitive); test: Recrudescence assay after 48 h drug exposure, F32-TEM; assay type: cell-based, Plasmodium falciparum; settings: 48 h exposure
Description: as §1, §2

[3] = system: P. falciparum strain F32-TEM (F32-Tanzania); test: In vitro antiplasmodial activity (SYBR Green fluorescence and [3H] hypoxanthine assays); assay type: cell-based, Plasmodium falciparum; settings: strain F32-Tanzania (F32-TEM), mean of at least 4 experiments, SYBR Green and radioactivity assays, read-out: Antiplasmodial Activity on P. falciparum IC50 ± SEM
Description: In vitro antiplasmodial activities of the synthesized hybrid molecules were evaluated against the P. falciparum strain F32-TEM (corresponding to the parental strain F32-Tanzania). Each molecule was tested at least in three independent experiments (except Aubis(5-Bn), tested twice) by a SYBR Green Fluorescence assay but also at least once with the standard chemosensitivity assay recommended by the WHO and based on the incorporation of [^3H] hypoxanthine.
For the SYBR Green Fluorescence assay, ring stage parasites were treated with the drugs for 48 h. Then, the pellets were washed twice with PBS and frozen at −20 °C. Thawed plates were incubated for 2 h at room temperature with the SYBR Green (Thermo-Fisher, Illkirch, France) lysis buffer (20 mm Tris base pH 7.5, 5 mm EDTA, 0.008% w/v saponin, 0.08% w/v Triton X-100). The plates were then read using a fluorescence plate reader (FLx800, BioTek, Illkirch, France) at an excitation wavelength of 485 nm and 535 nm for the emission wavelength. The IC50 values (concentration inhibiting 50% of the parasite’s growth) were determined using GraphPad Prism software 7 (GraphPad Software, San Diego, CA, USA).
For [^3H] hypoxanthine assay, ring stage parasites were incubated with the drug dilutions for 24 h, then, [^3H] hypoxanthine (50 μL/0.25 μCi; Perkin-Elmer, Courtaboeuf, France) was added for another 24 h period. After that, plates were frozen at −20 °C. The next step is to thaw the plates and to collect the nucleic acids. Tritium incorporation was then determined thanks to a β-counter (Perkin-Elmer, Courtaboeuf, France).
The antiplasmodial activities reported in Table 1 correspond thus to the mean of IC50 values from at least 4 independent experiments acquired by the two methods, SYBR Green and radioactivity.

[4] = system: P. falciparum F32-ART and F32-TEM strains; test: Recrudescence assay, comparison of F32-TEM and F32-ART (cross-resistance with artemisinin); assay type: cell-based, Plasmodium falciparum; settings: for Mean ± SEM Difference of Recrudescence Days between F32-TEM and F32-ART: 48 h exposure; for Cross-resistance with artemisinin (result in words): recrudescence assay, F32-ART vs F32-TEM
Description: Three hybrid molecules with the best selectivity indexes in each series, i.e., Aubis(3-Me) (14), Aubis(4-Me) (19) and Aubis(5-Me) (23), were evaluated in vitro for their efficacy in a context of resistance to artemisinins. For that, the comparison of the recovery capacity between the strain F32-ART, artemisinin-resistant, and its twin artemisinin-sensitive F32-TEM was evaluated after 48 h-treatment with the molecule to be tested via the recrudescence assay. When ring-stage resistant parasites are exposed to artemisinin, most of them die, but a small sub-set of parasites is able to escape the treatment by a cell cycle arrest, called quiescence mechanism. This phenomenon is characterized by a halt of DNA synthesis, which explains the very low IC50 values obtained with all artemisinins even for the artemisinin-resistant strain F32-ART [9, 15, 30]. Therefore, the standard in vitro chemosensitivity assay, based on the measurement of DNA levels to estimate the inhibition of the parasite proliferation, is irrelevant to study the resistance to artemisinins and evaluate possible cross-resistances.
as §2

Vero cell line = test: Cytotoxicity on Vero cells (MTT); assay type: cell-based, monkey; settings: for Selectivity Index Vero Cells/P. falciparum: cytotoxic/antiplasmodial activity ratio; for IC50: Vero cells, 48 h, MTT, read-out: Cytotoxicity on Vero Cells IC50 ± SEM
Description: (§3) The cells were cultured in MEM medium (Dutscher, Brumath, France) supplemented with 10% fetal bovine serum (Dutscher), 0.7 mM glutamine and 100 μg/mL gentamicin. The cells were seeded at 10^4 cells per well in a 96-well plates and incubated during 24 h. Then, cells were incubated for additional 48 h with the drugs. […] Subsequently, DMSO was added to the wells containing the cells and MTT to dissolve the formed crystals. The plates were then read to determine the absorbance at wavelength of 540 nm (µQuant, BioTek, Illkirch, France). Cell proliferation was calculated from at least three independent experiments using GraphPad Prism software 7 (GraphPad Software, San Diego, CA, USA). The cytotoxic/antiplasmodial activity ratio corresponds to the selectivity index.

[5] = Cytotoxicity on Vero cells (MTT); assay type: cell-based, monkey; settings: monkey; Vero cells, 48 h, MTT; read-out: Cytotoxicity on Vero Cells IC50 ± SEM
Description: as §3

[6] = Plasmodium falciparum, F32, 48 h

Row | Structure (SMILES) | IC50 [3, 6] [nM] | Selectivity Index Vero Cells/P. falciparum (Vero cell line) | IC50 at 48 h [5] [µM] | Median (range) Recrudescence Days, F32-ART ([1]; dose 500 nM) | Median (range) Recrudescence Days, F32-TEM ([2]; dose 500 nM) | IC50 ([3]; 48 h) [nM] | Mean ± SEM Difference of Recrudescence Days between F32-TEM and F32-ART ([4]; dose 500 nM) [days] | Cross-resistance with artemisinin (result in words) [4] | IC50 (Vero cell line) [nM] | also measured
1 | C[C@@H]1CC[C@H]2[C@@H](C)C(=O)O[C@@H]3O[C@@]4(C)CC[C@@H]1[C@]32OO4 [Artemisinin, reference compound] | 18 ± 2 | 7 000 | 130 |  |  |  |  |  |  | Median (range) Recrudescence Days, F32-ART ([1]; dose 18 µM): 9.5 (6–17) days; Median (range) Recrudescence Days, F32-TEM ([2]; dose 18 µM): 18.5 (17–>30) days; Mean ± SEM Difference of Recrudescence Days between F32-TEM and F32-ART ([4]; dose 18 µM): 9.7 ± 0.3 days; Mean ± SEM Difference of Recrudescence Days between F32-TEM and F32-ART ([4]; dose 18 µM, listed as artemisinin): 9.7 days
2 | C[C@@H]1CCC2[C@@H](C)[C@@H](OCCCn3cc[n+](C)[c]3[Au-][c]3n(CCCO[C@H]4O[C@@H]5O[C@@]6(C)CCC7[C@H](C)CCC([C@H]4C)[C@]75OO6)cc[n+]3C)O[C@@H]3O[C@@]4(C)CCC1[C@@]23OO4.O=[N+]([O-])[O-] (stereo partly drawn) [Aubis(3-Me)] |  |  |  | 8 days | 24 days | 35 ± 8 | 16 | cross-resistance | 5000 | Median (range) Recrudescence Days, F32-ART ([1]; dose 200 nM): 7 (7–13) days; Median (range) Recrudescence Days, F32-TEM ([2]; dose 200 nM): 14 (11–16) days; Mean ± SEM Difference of Recrudescence Days between F32-TEM and F32-ART ([4]; dose 200 nM): 4.6 ± 1.2 days
3 | C[C@@H]1CCC2[C@@H](C)[C@@H](OCCCCn3cc[n+](C)[c]3[Au-][c]3n(CCCCO[C@H]4O[C@@H]5O[C@@]6(C)CCC7[C@H](C)CCC([C@H]4C)[C@]75OO6)cc[n+]3C)O[C@@H]3O[C@@]4(C)CCC1[C@@]23OO4.[Cl-] (stereo partly drawn) [Aubis(4-Me)] |  |  |  | 12.5 (11–14) days | >30 days | 13 ± 3 | >17.5 ± 1.5 | cross-resistance | 800 | Median (range) Recrudescence Days, F32-ART ([1]; dose 100 nM): 5 days; Median (range) Recrudescence Days, F32-ART ([1]; dose 1 µM): 16 days; Median (range) Recrudescence Days, F32-TEM ([2]; dose 100 nM): 6 days; Median (range) Recrudescence Days, F32-TEM ([2]; dose 1 µM): 30 days; Mean ± SEM Difference of Recrudescence Days between F32-TEM and F32-ART ([4]; dose 100 nM): 1 days; Mean ± SEM Difference of Recrudescence Days between F32-TEM and F32-ART ([4]; dose 1 µM): 14 days
4 | C[C@@H]1CCC2[C@@H](C)[C@@H](OCCCCCn3cc[n+](C)[c]3[Au-][c]3n(CCCCCO[C@H]4O[C@@H]5O[C@@]6(C)CCC7[C@H](C)CCC([C@H]4C)[C@]75OO6)cc[n+]3C)O[C@@H]3O[C@@]4(C)CCC1[C@@]23OO4.[Cl-] (stereo partly drawn) [Aubis(5-Me)] |  |  |  | 9.5 (8–11) days | >25.5 (21–>30) days | 9 ± 0.9 | >16 | cross-resistance | 1000 | Median (range) Recrudescence Days, F32-ART ([1]; dose 100 nM): 6 days; Median (range) Recrudescence Days, F32-ART ([1]; dose 1 µM): 9 days; Median (range) Recrudescence Days, F32-TEM ([2]; dose 100 nM): 15 days; Median (range) Recrudescence Days, F32-TEM ([2]; dose 1 µM): 30 days; Mean ± SEM Difference of Recrudescence Days between F32-TEM and F32-ART ([4]; dose 100 nM): 9 days; Mean ± SEM Difference of Recrudescence Days between F32-TEM and F32-ART ([4]; dose 1 µM): 21 days
5 | C[C@@H]1CCC2[C@@H](C)[C@@H](OCCCBr)O[C@@H]3O[C@@]4(C)CCC1[C@@]23OO4 (stereo partly drawn) [DHA-C3, 10β-(20-Bromopropoxy)dihydroartemisinin] | 8.5 ± 3 | 294 | 2.5 |  |  |  |  |  |  | 
6 | C[C@@H]1CCC2[C@@H](C)[C@@H](OCCCCCn3cc[n+](Cc4ccccc4)c3)O[C@@H]3O[C@@]4(C)CCC1[C@@]23OO4 (stereo partly drawn) [L5-Bn, 3′-Benzyl-1′-[10β-(22-pentoxy)dihydroartemisinin]1H-imidazol-3-ium bromide] | < 100 | 10 | 1 |  |  | 98 ± 26 |  |  |  | 
7 | Cc1cc(C)c(-[n+]2ccn(CCCCCO[C@H]3O[C@@H]4O[C@@]5(C)CCC6[C@H](C)CCC([C@H]3C)[C@]64OO5)c2)c(C)c1 (stereo partly drawn) [L5-Mes, 3′-Mesityl-1′-[10β-(22-pentoxy)dihydroartemisinin]1H-imidazol-3-ium bromide] | < 100 | 255 | 25 |  |  | 98 ± 24 |  |  |  | 
